According to US10196369B2, “Spirocyclic EBI2 modulators” (Sanford Burnham Prebys Medical Discovery Institute, priority 2013, dated 2019):

Molecular target: EBI2 (Homo sapiens, UniProt P32249)
Assay: Cell-based luminescent assay of EBI2 modulation (7a,25-OHC stimulated)
Settings: 7a,25-OHC final assay concentration 80 nM, 60 minute incubation
Method: To assess EBI2 modulation, the compounds described herein were assayed in the following cell-based luminescent assay:
1) Plated 600 cells/well in 4 μL of assay media into columns 1-48 of a 1536-well assay plate, using a liquid dispenser.
2) Centrifuged plates at 1000 rpm for 1 minute and covered with lids.
3) Incubated overnight at 37° C., 100% relative humidity, 5% CO2.
1) Centrifuged compound plates containing compounds described herein at 500 rpm for 1 minute.
2) Added compounds into assay plate col 5-48 to final concentration 4-5 uM. Added matching amount of DMSO to positive and negative control wells in columns 1-4.
3) Dispensed 2 uL/well of assay media to columns 1-2 for the positive control wells.
4) Added 2 uL/well of 400 nM 7a,25-OHC (final assay concentration=80 nM) in assay media to columns 3-48 for the negative control and test compound wells.
5) Centrifuged plates at 1000 rpm for 1 minute and re-lid plates.
6) Incubated plates at 37° C., 100% relative humidity, 5% CO2 for 60 minutes.
7) Following 60 minute incubation, delivered 2.5 uL of Detection Reagent solution to each assay plate (Columns 1-48) using a liquid handler.
8) Centrifuged plates at 2000 rpm for 2 minutes and re-lid plates.
9) Incubated plates for 60 minutes at 25 degrees in the dark.
10) Read plates using the Viewlux, Envision or other suitable plate reader using a luminescence detection.
The experimental values were normalized by the difference between values from neutral and stimulator control wells in each plate. Then normalized data was corrected to remove systematic plate patterns due to artifacts such as dispensing tip issues etc.

Sequence of EBI2 (P32249 whole entry): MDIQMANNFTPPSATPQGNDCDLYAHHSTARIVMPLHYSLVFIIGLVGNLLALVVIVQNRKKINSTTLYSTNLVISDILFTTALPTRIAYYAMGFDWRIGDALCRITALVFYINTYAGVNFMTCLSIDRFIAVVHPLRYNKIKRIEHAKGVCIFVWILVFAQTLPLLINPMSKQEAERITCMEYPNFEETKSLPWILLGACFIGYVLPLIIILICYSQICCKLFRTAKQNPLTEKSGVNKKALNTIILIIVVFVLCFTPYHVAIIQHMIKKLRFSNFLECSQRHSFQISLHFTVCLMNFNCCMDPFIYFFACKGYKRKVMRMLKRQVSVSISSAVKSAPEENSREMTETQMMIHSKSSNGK

Work on O=C(/C=C/c1ccc(Br)cc1)N1CC2(CCN(C(=O)c3ccc(-c4nnn[nH]4)cc3)CC2)C1 [Compound C23, (2E)-3-(4-bromophenyl)-1-{7-[(4-(1H-1,2,3,4-tetraazol-5-yl)phenyl)carbonyl]-2,7-diazaspiro[3.5]non-2-yl}prop-2-en-1-one] yielded an IC50 of 100 to 500 nM.

Work on O=C(C#Cc1ccc(Br)cc1)N1CCC2(CC1)CN(C(=O)c1ccc(Cl)cc1)C2 [Compound C70, 3-(4-bromophenyl)-1-{2-[(4-chlorophenyl)carbonyl]-2,7-diazaspiro[3.5]non-7-yl}prop-2-yn-1-one] yielded an IC50 of 100 to 500 nM.

O=C(/C=C/c1ccc(Br)cc1)N1CCC2(CC1)CN(C(=O)c1ccc(Cl)cc1)C2 [Compound L1, (2E)-3-(4-bromophenyl)-1-{2-[(4-chlorophenyl)carbonyl]-2,7-diazaspiro[3.5]non-7-yl}prop-2-en-1-one] gave an IC50 of less than 100 nM.

With O=C(C#Cc1ccc(Br)cc1)N1CCC2(CC1)CN(Cc1ccc(F)cc1)C2 [Compound C68, 3-(4-bromophenyl)-1-{2-[(4-fluorophenyl)methyl]-2,7-diazaspiro[3.5]non-7-yl}prop-2-yn-1-one] the IC50 was less than 100 nM.

O=C(/C=C/c1ccc(Br)cc1)N1CC2(CCN(Cc3ccc(F)c(C(F)(F)F)c3)CC2)C1 [Compound C27, (2E)-3-(4-bromophenyl)-1-(7-{[4-fluoro-3-(trifluoromethyl)phenyl]methyl}-2,7-diazaspiro[3.5]non-2-yl)prop-2-en-1-one] gave an IC50 of 100 to 500 nM.

O=C(C#Cc1ccc(F)cc1)N1CCC2(CC1)CN(C(=O)c1ccc(Br)cc1)C2 [Compound C99, 1-{2-[(4-bromophenyl)carbonyl]-2,7-diazaspiro[3.5]non-7-yl}-3-(4-fluorophenyl)prop-2-yn-1-one] was tested, and the IC50 was 100 to 500 nM.

Work on O=C(C#Cc1ccc(F)cc1)N1CCC2(CC1)CN(Cc1ccc(F)cc1C(F)(F)F)C2 [Compound C90, 3-(4-fluorophenyl)-1-(2-{[4-fluoro-2-(trifluoromethyl)phenyl]methyl}-2,7-diazaspiro[3.5]non-7-yl)prop-2-yn-1-one] yielded an IC50 of 100 to 500 nM.

For O=C(/C=C/c1ccc(Br)cc1)N1CC2(CCN(Cc3cc(C(F)(F)F)cc(C(F)(F)F)c3)CC2)C1 [Compound C24, (2E)-1-(7-{[3,5-bis(trifluoromethyl)phenyl]methyl}-2,7-diazaspiro[3.5]non-2-yl)-3-(4-bromophenyl)prop-2-en-1-one], the IC50 was 100 to 500 nM.

For O=C(C#Cc1ccc(Cl)cc1)N1CCC2(CC1)CN(C(=O)c1ccc(C(F)(F)F)cc1)C2 [Compound C79, 3-(4-chlorophenyl)-1-(2-{[4-(trifluoromethyl)phenyl]carbonyl}-2,7-diazaspiro[3.5]non-7-yl)prop-2-yn-1-one], the IC50 was less than 100 nM.

In the case of O=C(C#Cc1ccc(Cl)cc1)N1CCC2(CC1)CN(C(=O)c1ccc(F)cc1)C2 [Compound C77, 3-(4-chlorophenyl)-1-{2-[(4-fluorophenyl)carbonyl]-2,7-diazaspiro[3.5]non-7-yl}prop-2-yn-1-one], the IC50 is reported as less than 100 nM.

O=C(/C=C/c1ccc(Cl)c(Cl)c1)N1CC2(CCN(Cc3ccc(F)cc3)CC2)C1 [Compound C32, (2E)-3-(3,4-dichlorophenyl)-1-{7-[(4-fluorophenyl)methyl]-2,7-diazaspiro[3.5]non-2-yl}prop-2-en-1-one] showed an IC50 of 100 to 500 nM.

Compound O=C(c1cc2cc(Cl)ccc2[nH]1)N1CC2(CCN(Cc3ccc(OC(F)(F)F)cc3)CC2)C1 [Compound C36, 5-chloroindol-2-yl 7-{[4-(trifluoromethoxy)phenyl]methyl}-2,7-diazaspiro[3.5]non-2-yl ketone] has an IC50 of 100 to 500 nM.

Compound O=C(c1ccc(F)cc1)N1CC2(CCN(C(=O)c3cc4cc(Cl)ccc4[nH]3)CC2)C1 [Compound C5, 5-chloroindol-2-yl 2-[(4-fluorophenyl)carbonyl]-2,7-diazaspiro[3.5]non-7-yl ketone] has an IC50 of less than 100 nM.

O=C(/C=C/c1ccc(Cl)c(Cl)c1)N1CC2(CCN(Cc3ccc(C(F)(F)F)c(F)c3)CC2)C1 [Compound C34, (2E)-3-(3,4-dichlorophenyl)-1-(7-{[3-fluoro-4-(trifluoromethyl)phenyl]methyl}-2,7-diazaspiro[3.5]non-2-yl)prop-2-en-1-one] was tested, and the IC50 was 100 to 500 nM.

In the case of O=C(c1ccc(B(O)O)cc1)N1CCC2(CC1)CN(C(=O)c1cc3cc(Cl)ccc3[nH]1)C2 [Compound C37, 4-(2-(5-chloro-1H-indole-2-carbonyl)-2,7-diazaspiro[3.5]nonane-7-carbonyl)phenylboronic acid], the IC50 is reported as 100 to 500 nM.

COc1ccc(C(=O)N2CCC3(CC2)CN(C(=O)C#Cc2ccc(Cl)cc2)C3)cc1 [Compound C91, 3-(4-chlorophenyl)-1-{7-[(4-methoxyphenyl)carbonyl]-2,7-diazaspiro[3.5]non-2-yl}prop-2-yn-1-one] gave an IC50 of less than 100 nM.

Work on O=C(/C=C/c1ccc(Br)cc1)N1CCC2(CC1)CN(Cc1ccc(F)cc1)C2 [Compound C8, (2E)-3-(4-bromophenyl)-1-{2-[(4-fluorophenyl)methyl]-2,7-diazaspiro[3.5]non-7-yl}prop-2-en-1-one] yielded an IC50 of less than 100 nM.

O=C(/C=C/c1ccc(Cl)c(Cl)c1)N1CCC2(CC1)CN(C(=O)/C=C/c1ccc(Cl)c(Cl)c1)C2 [Compound C35, (2E)-1-{2-[(2E)-3-(3,4-dichlorophenyl)prop-2-enoyl]-2,7-diazaspiro[3.5]non-7-yl}-3-(3,4-dichlorophenyl)prop-2-en-1-one] showed an IC50 of less than 100 nM.

O=C(c1ccc(C(F)(F)F)c(F)c1)N1CC2(CCN(C(=O)c3cc4cc(Cl)ccc4[nH]3)CC2)C1 [Compound C13, 5-chloroindol-2-yl 2-{[3-fluoro-4-(trifluoromethyl)phenyl]carbonyl}-2,7-diazaspiro[3.5]non-7-yl ketone] showed an IC50 of 100 to 500 nM.

For O=C(/C=C/c1ccc(Br)cc1)N1CC2(CCN(C(=O)c3ccc(C(F)(F)F)cc3)CC2)C1 [Compound C21, (2E)-3-(4-bromophenyl)-1-(7-{[4-(trifluoromethyl)phenyl]carbonyl}-2,7-diazaspiro[3.5]non-2-yl)prop-2-en-1-one], the IC50 was less than 100 nM.

In the case of O=C(c1ccc(Br)cc1)N1CCC2(CC1)CN(C(=O)c1cc3cc(Br)ccc3[nH]1)C2 [Compound C46, 5-bromoindol-2-yl 7-[(4-bromophenyl)carbonyl]-2,7-diazaspiro[3.5]non-2-yl ketone], the IC50 is reported as less than 100 nM.

O=C(c1cc2cc(Br)ccc2[nH]1)N1CC2(CCN(Cc3ccc(Cl)cc3)CC2)C1 [Compound C49, 5-bromoindol-2-yl 7-[(4-chlorophenyl)methyl]-2,7-diazaspiro[3.5]non-2-yl ketone] gave an IC50 of 500 to 5000 nM.

Compound O=C(/C=C/c1ccc(Br)cc1)N1CC2(CCN(C(=O)c3cccc(Br)c3)CC2)C1 [Compound C2, (2E)-3-(4-bromophenyl)-1-{7-[(3-bromophenyl)carbonyl]-2,7-diazaspiro[3.5]non-2-yl}prop-2-en-1-one] has an IC50 of less than 100 nM.

O=C(/C=C/c1ccc(Br)cc1)N1CCC2(CC1)CN(C(=O)c1ccc(C(F)(F)F)cc1)C2 [Compound C54, (2E)-3-(4-bromophenyl)-1-(2-{[4-(trifluoromethyl)phenyl]carbonyl}-2,7-diazaspiro[3.5]non-7-yl)prop-2-en-1-one] was tested, and the IC50 was less than 100 nM.

O=C(/C=C/c1ccc(Br)cc1)N1CCC2(CC1)CN(C(=O)c1ccccc1)C2 [Compound C7, (2E)-3-(4-bromophenyl)-1-[2-(phenylcarbonyl)-2,7-diazaspiro[3.5]non-7-yl]prop-2-en-1-one] gave an IC50 of less than 100 nM.

Compound O=C(/C=C/c1ccc(Cl)c(Cl)c1)N1CC2(CCN(C(=O)c3ccc(F)cc3)CC2)C1 [Compound C28, (2E)-3-(3,4-dichlorophenyl)-1-{7-[(4-fluorophenyl)carbonyl]-2,7-diazaspiro[3.5]non-2-yl}prop-2-en-1-one] has an IC50 of less than 100 nM.

For O=C(C#Cc1ccc(Cl)cc1)N1CC2(CCN(Cc3ccc(Cl)cc3)CC2)C1 [Compound C85, 3-(4-chlorophenyl)-1-{7-[(4-chlorophenyl)methyl]-2,7-diazaspiro[3.5]non-2-yl}prop-2-yn-1-one], the IC50 was 100 to 500 nM.

For O=C(C#Cc1ccc(Cl)cc1)N1CC2(CCN(Cc3ccc(C(F)(F)F)cc3)CC2)C1 [Compound C83, 3-(4-chlorophenyl)-1-(7-{[4-(trifluoromethyl)phenyl]methyl}-2,7-diazaspiro[3.5]non-2-yl)prop-2-yn-1-one], the IC50 was 500 to 5000 nM.

O=C(C#Cc1ccc(Cl)cc1)N1CCC2(CC1)CN(Cc1ccc(Cl)cc1)C2 [Compound C82, 3-(4-chlorophenyl)-1-{2-[(4-chlorophenyl)methyl]-2,7-diazaspiro[3.5]non-7-yl}prop-2-yn-1-one] gave an IC50 of less than 100 nM.

In the case of O=C(C#Cc1ccc(Cl)cc1)N1CCC2(CC1)CN(C(=O)c1ccc(Cl)cc1)C2 [Compound C76, 3-(4-chlorophenyl)-1-{2-[(4-chlorophenyl)carbonyl]-2,7-diazaspiro[3.5]non-7-yl}prop-2-yn-1-one], the IC50 is reported as less than 100 nM.

O=C(/C=C/c1ccc(Cl)c(Cl)c1)N1CC2(CCN(C(=O)c3ccc(Cl)cc3)CC2)C1 [Compound C29, (2E)-3-(3,4-dichlorophenyl)-1-{7-[(4-chlorophenyl)carbonyl]-2,7-diazaspiro[3.5]non-2-yl}prop-2-en-1-one] gave an IC50 of less than 100 nM.

With O=C(C#Cc1ccc(F)cc1)N1CCC2(CC1)CN(C(=O)c1ccc(F)cc1)C2 [Compound C86, 3-(4-fluorophenyl)-1-{2-[(4-fluorophenyl)carbonyl]-2,7-diazaspiro[3.5]non-7-yl}prop-2-yn-1-one] the IC50 was 100 to 500 nM.
